pIC50: −log10 of the molar value. Bounds are passed on as bounds.

The inhibition is the change of the read-out against control, counted positive when it falls. In general, pIC50 refers to the negative decadic logarithm of the IC50, by convention in mol/L.

In the first test the target is BTK (Homo sapiens (Human), UniProt Q06187). Description: Z'-LYTE kinase inhibition assay against BTK. In kind it is biochemical. The settings on record: compound at 100 nM; ATP concentration at Km. As to the method: Inhibitory activities of compounds against BTK, EGFR T790M, EGFR L858R, and EGFR L858R/T790M were measured using Z′-LYTE® Method from Life Technologies as briefly described in the following.
BTK, sequence (Q06187 whole entry): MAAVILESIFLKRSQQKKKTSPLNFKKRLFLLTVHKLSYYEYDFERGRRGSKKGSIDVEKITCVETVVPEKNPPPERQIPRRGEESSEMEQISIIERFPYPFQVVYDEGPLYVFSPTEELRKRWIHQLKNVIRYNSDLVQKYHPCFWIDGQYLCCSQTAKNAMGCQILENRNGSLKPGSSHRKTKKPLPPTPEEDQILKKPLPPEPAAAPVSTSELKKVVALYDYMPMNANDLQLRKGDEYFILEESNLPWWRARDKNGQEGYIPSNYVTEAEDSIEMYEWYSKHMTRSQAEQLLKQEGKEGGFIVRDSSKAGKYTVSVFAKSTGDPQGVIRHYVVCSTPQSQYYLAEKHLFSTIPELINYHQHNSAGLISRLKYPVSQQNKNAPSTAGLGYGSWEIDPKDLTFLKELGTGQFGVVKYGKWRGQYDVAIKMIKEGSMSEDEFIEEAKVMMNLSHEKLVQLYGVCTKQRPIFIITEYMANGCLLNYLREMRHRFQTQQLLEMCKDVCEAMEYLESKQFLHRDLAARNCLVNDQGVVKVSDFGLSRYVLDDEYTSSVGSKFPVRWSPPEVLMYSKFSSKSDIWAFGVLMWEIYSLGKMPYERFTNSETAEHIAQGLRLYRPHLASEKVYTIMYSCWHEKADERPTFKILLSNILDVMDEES
Test Compounds are screened in 1% DMSO (final) in the well. For 10 point titrations, 3-fold serial dilutions are conducted from the starting concentration. All ATP Solutions are diluted to a 4× working concentration in Kinase Buffer (50 mM HEPES pH 7.5, 0.01% BRIJ-35, 10 mM MgCl2, 1 mM EGTA). Peptide/Kinase Mixtures are diluted to a 2× working concentration in the appropriate Kinase Buffers as described below. • (i) Peptide/Kinase Mixtures for measurement of EGFR (ErbB1) L858R: • The 2×EGFR (ErbB1) L858R/Tyr 04 mixture is prepared in 50 mM HEPES pH 7.5, 0.01% BRIJ-35, 10 mM MgCl2, 4 mM MnCl2. 1 mM EGTA, 2 mM DTT. The final 10 μL Kinase Reaction consists of 0.2-1.68 ng EGFR (ErbB1) L858R and 2 μM Tyr 04 in 50 mM HEPES pH 7.5, 0.01% BRIJ-35, 10 mM MgCl2, 2 mM MnCl2, 1 mM EGTA, 1 mM DTT. After the 1 hour Kinase Reaction incubation, 5 μL of a 1:64 dilution of Development Reagent B is added. • (ii) Peptide/Kinase Mixtures for measurement of EGFR (ErbB1) T790M: The 2×EGFR (ErbB1) T790M/Tyr 04 mixture is prepared in 50 mM HEPES pH 6.5, 0.01% BRIJ-35, 10 mM MgCl2, 1 mM EGTA, 0.02% NaN3. The final 10 μL Kinase Reaction consists of 3.9-30.2 ng EGFR (ErbB1) T790M and 2 μM Tyr 04 in 50 mM HEPES pH 7.0, 0.01% BRIJ-35, 10 mM MgCl2, 1 mM EGTA, 0.01% NaN3. After the 1 hour Kinase Reaction incubation, 5 μL of a 1:64 dilution of Development Reagent B is added. • (iii) Peptide/Kinase Mixtures for measurement of EGFR (ErbB1) L858R/T790M: The 2×EGFR (ErbB1) T790M L858R/Tyr 04 mixture is prepared in 50 mM HEPES pH 6.5, 0.01% BRIJ-35, 10 mM MgCl2, 1 mM EGTA, 0.02% NaN3. The final 10 μL Kinase Reaction consists of 0.38-4.22 ng EGFR (ErbB1) T790M L858R and 2 μM Tyr 04 in 50 mM HEPES pH 7.0, 0.01% BRIJ-35, 10 mM MgCl2, 1 mM EGTA, 0.01% NaN3. After the 1 hour Kinase Reaction incubation, 5 μL of a 1:64 dilution of Development Reagent B is added. • (iv) Peptide/Kinase Mixtures for measurement of BTK: The 2×BTK/Tyr 01 mixture is prepared in 50 mM HEPES pH 7.5, 0.010/BRIJ-35, 10 mM MgCl2, 1 mM EGTA. The final 10 μL Kinase Reaction consists of 1.04-10.4 ng BTK and 2 μM Tyr 01 in 50 mM HEPES pH 7.5, 0.01% BRIJ-35, 10 mM MgCl2, 1 mM EGTA. After the 1 hour Kinase Reaction incubation, 5 μL of a 1:256 dilution of Development Reagent B is added.
Reaction starts by 30-second shaking of mixture consisting of 2.5 μL 4× test compound, 5 μL 2× kinase reaction mixture and 2.5 μL 4×ATP Solution on Bar-coded Corning, low volume NBS, black 384-well plate (Corning Cat. #3676). Then the mixture is incubated for 60-minute at room temperature for the kinase reaction, followed by addition of 5 μL of a 1:1024 dilution of development reagent A and 30-second plate shake. The mixture is then incubated for another 60-minute at room temperature for development reaction. Finally fluorescence is read by plate reader.
The Z′-LYTE assay was carried out with ATP concentration at Km. The scale utilized in Tables 2-6 is as follows: ++ more than 50% inhibition and + less than 50% inhibition.
To determine IC50 of a compound against a kinase, a series of concentrations of the compound were tested for the inhibition. IC50 was calculated by plotting the concentration of compound vs the percentage of inhibition in treated wells using GraphPad Prism 5. […] The scale utilized in Table 7 is as follows: ++ less than 100 nM and + greater than 100 nM.
Turning to `C=CC(=O)N1CCC(c2cc(-c3ccc(C(=O)Nc4ccccc4)nc3)cc3cncnc23)C1` (stereo not shown) [C060, 5-(8-(1-acryloylpyrrolidin-3-yl)quinazolin-6-yl)-N-phenylpicolinamide], the inhibition at 0.1 µM is under 50%. The compound `C=CC(=O)Nc1cccc(-c2cc(-c3ccc(Oc4ccccc4)nc3)cc3cncnc23)c1` [C061, N-(3-(6-(6-phenoxypyridin-3-yl)quinazolin-8-yl)phenyl)acrylamide] came in with an inhibition at 0.1 µM of over 50%.

With `C=CC(=O)N1CCC(c2cc(-c3ccc(C(=O)Nc4ccccc4)cc3)cc3cncnc23)C1` (stereo not shown) [C062, 4-(8-(1-acryloylpyrrolidin-3-yl)quinazolin-6-yl)-N-phenylbenzamide], the inhibition at 0.1 µM was under 50%. On the same count and under the same terms, to `C=CC(=O)N1CCC(c2cc(-c3ccc(Oc4ccccc4)cc3)n3cnccc23)C1` (stereo not shown) [C063, 1-(3-(7-(4-phenoxyphenyl)pyrrolo[1,2-c]pyrimidin-5-yl)pyrrolidin-1-yl)prop-2-en-1-one] belongs over 50%; to `C=CC(=O)N1CCC(c2cc(-c3cncc(C(F)(F)F)c3)cc3cncnc23)C1` (stereo not shown) [C066, 1-(3-(6-(5-(trifluoromethyl)pyridin-3-yl)quinazolin-8-yl)pyrrolidin-1-yl)prop-2-en-1-one], under 50%; to `C=CC(=O)N1CCC(c2cc(-c3ccc(C(=O)Nc4ccccn4)cc3Cl)cc3cncnc23)C1` (stereo not shown) [C067, 4-(8-(1-acryloylpyrrolidin-3-yl)quinazolin-6-yl)-3-chloro-N-(pyridin-2-yl)benzamide], over 50%. Still for that read-out and setting: to `C=CC(=O)N1CCC(c2cc(-c3ccc(C(=O)Nc4cccc(C(F)(F)F)c4)cc3)cc3cncnc23)C1` (stereo not shown) [C068, 4-(8-(1-acryloylpyrrolidin-3-yl)quinazolin-6-yl)-N-(3-(trifluoromethyl)phenyl)benzamide] belongs under 50%; to `C=CC(=O)Nc1cccc(-c2cc(-c3ccc(C(=O)Nc4ccccn4)nc3)cc3cncnc23)c1` [C069, 5-(8-(3-acrylamidophenyl)quinazolin-6-yl)-N-(pyridin-2-yl)picolinamide], over 50%. For the compound `C=CC(=O)Nc1cccc(-c2cc(-c3ccc(C(=O)Nc4cccc(C)c4)nc3)cc3cncnc23)c1` [C070, 5-(8-(3-acrylamidophenyl)quinazolin-6-yl)-N-(m-tolyl)picolinamide], the inhibition at 0.1 µM is under 50%.

Take `C=CC(=O)Nc1cccc(-c2cc(-c3ccc(C(=O)Nc4cccc(C(F)(F)F)c4)nc3)cc3cncnc23)c1` [C071, 5-(8-(3-acrylamidophenyl)quinazolin-6-yl)-N-(3-(trifluoromethyl)phenyl)picolinamide]: the inhibition at 0.1 µM is over 50%. Still for that read-out and setting: to `C=CC(=O)Nc1cccc(-c2cc(-c3ccc(Oc4ccc(Cl)cc4)nc3)cc3cncnc23)c1` [C072, N-(3-(6-(6-(4-chlorophenoxy)pyridin-3-yl)quinazolin-8-yl)phenyl)acrylamide] belongs under 50%; to `C=CC(=O)Nc1cccc(-c2cc(-c3ccccc3C#N)cc3cncnc23)c1` [C075, N-(3-(6-(2-cyanophenyl)quinazolin-8-yl)phenyl)acrylamide], over 50%.

With `C=CC(=O)N1CCC(c2cc(-c3ccc(Oc4ccccc4)nc3)cc3cncnc23)C1` (stereo not shown) [C077, 1-(3-(6-(6-phenoxypyridin-3-yl)quinazolin-8-yl)pyrrolidin-1-yl)prop-2-en-1-one], the inhibition at 0.1 µM is under 50%.

Regarding `C=CC(=O)N1CCC(c2cc(-c3ccc(Oc4ccccc4)cc3)cc3cnc(N)nc23)C1` (stereo not shown) [C078, 1-(3-(2-amino-6-(4-phenoxyphenyl)quinazolin-8-yl)pyrrolidin-1-yl)prop-2-en-1-one], the inhibition at 0.1 µM was over 50%. As to `C=CC(=O)N1CCC(c2cc(-c3ccc(C(=O)Nc4ccccn4)cc3)cc3cncnc23)C1` (stereo not shown) [C079, 4-(8-(1-acryloylpyrrolidin-3-yl)quinazolin-6-yl)-N-(pyridin-2-yl)benzamide], the inhibition at 0.1 µM is under 50%.

For the compound `C=CC(=O)N1CCC(c2cc(-c3ccc(C(=O)Nc4cccc(C)c4)nc3)cc3cncnc23)C1` (stereo not shown) [C080, 5-(8-(1-acryloylpyrrolidin-3-yl)quinazolin-6-yl)-N-(m-tolyl)picolinamide], the inhibition at 0.1 µM was under 50%.

`C=CC(=O)Nc1cccc(-c2cc(-c3ccc(Oc4cccc(C(F)(F)F)c4)nc3)cc3cncnc23)c1` [C081, N-(3-(6-(6-(3-(trifluoromethyl)phenoxy)pyridin-3-yl)quinazolin-8-yl)phenyl)acrylamide] came in with an inhibition at 0.1 µM of over 50%. `C=CC(=O)N1CCC(c2cc(-c3ccc(Oc4cccc(C(F)(F)F)c4)nc3)cc3cncnc23)C1` (stereo not shown) [C082, 1-(3-(6-(6-(3-(trifluoromethyl)phenoxy)pyridin-3-yl)quinazolin-8-yl)pyrrolidin-1-yl)prop-2-en-1-one]: the inhibition at 0.1 µM is under 50%. Consider `C=CC(=O)N1CCC(c2cc(-c3ccccc3)cc3cnc(N)nc23)C1` (stereo not shown) [C083, 1-(3-(2-amino-6-phenylquinazolin-8-yl)pyrrolidin-1-yl)prop-2-en-1-one], for which the inhibition at 0.1 µM was under 50%. The compound `C=CC(=O)N1CCC(c2cc(-c3ccccc3F)cc3cncnc23)C1` (stereo not shown) [C084, 1-(3-(6-(2-fluorophenyl)quinazolin-8-yl)pyrrolidin-1-yl)prop-2-en-1-one] had an inhibition at 0.1 µM of under 50%. Compound `C=CC(=O)N1CCC(c2cc(-c3ccccc3F)cc3cnc(N)nc23)C1` (stereo not shown) [C085, 1-(3-(2-amino-6-(2-fluorophenyl)quinazolin-8-yl)pyrrolidin-1-yl)prop-2-en-1-one] had an inhibition at 0.1 µM of under 50%. `C=CC(=O)Nc1cccc(-c2cc(-c3ccc(Oc4cccc(F)c4)nc3)cc3cncnc23)c1` [C086, N-(3-(6-(6-(3-fluorophenoxy)pyridin-3-yl)quinazolin-8-yl)phenyl)acrylamide] showed an inhibition at 0.1 µM of over 50%.

Consider `C=CC(=O)Nc1cccc(-c2cc(-c3ccc(C(=O)Nc4ccccn4)cc3F)cc3cncnc23)c1` [C087, 4-(8-(3-Acrylamidophenyl)quinazolin-6-yl)-3-fluoro-N-(pyridin-2-yl)benzamide], for which the inhibition at 0.1 µM was under 50%.

Compound `C=CC(=O)Nc1cccc(-c2cc(-c3ccc(Oc4cc(C(F)(F)F)ccn4)cc3Cl)cc3cncnc23)c1` [C088, N-(3-(6-(2-chloro-4-((4-(trifluoromethyl)pyridin-2-yl)oxy)phenyl)quinazolin-8-yl)phenyl)acrylamide] registered an inhibition at 0.1 µM of over 50%.

`C=CC(=O)Nc1cccc(-c2cc(-c3ccc(C(=O)Nc4ccccc4)cc3F)cc3cncnc23)c1` [C089, 4-(8-(3-Acrylamidophenyl)quinazolin-6-yl)-3-fluoro-N-phenylbenzamide] showed an inhibition at 0.1 µM of over 50%.

For `C=CC(=O)N1CCC(c2cc(-c3ccc(Oc4cc(C(F)(F)F)ccn4)cc3F)cc3cncnc23)C1` (stereo not shown) [C090, 1-(3-(6-(2-Fluoro-4-((4-(trifluoromethyl)pyridin-2-yl)oxy)phenyl)quinazolin-8-yl)pyrrolidin-1-yl)prop-2-en-1-one], the inhibition at 0.1 µM was under 50%.

The same test, now with this note: series of concentrations; GraphPad Prism 5.
`C=CC(=O)Nc1cccc(-c2cc(-c3ccc(Oc4ccccc4)nc3)cc3cncnc23)c1` [C061, N-(3-(6-(6-phenoxypyridin-3-yl)quinazolin-8-yl)phenyl)acrylamide] had a pIC50 of over 7.00.

`C=CC(=O)N1CCC(c2cc(-c3ccc(C(=O)Nc4ccccn4)cc3Cl)cc3cncnc23)C1` (stereo not shown) [C067, 4-(8-(1-acryloylpyrrolidin-3-yl)quinazolin-6-yl)-3-chloro-N-(pyridin-2-yl)benzamide]: the pIC50 was over 7.00. Take `C=CC(=O)Nc1cccc(-c2cc(-c3ccccc3C#N)cc3cncnc23)c1` [C075, N-(3-(6-(2-cyanophenyl)quinazolin-8-yl)phenyl)acrylamide]: the pIC50 is over 7.00.

As to `C=CC(=O)N1CCC(c2cc(-c3ccc(Oc4ccccc4)cc3)cc3cnc(N)nc23)C1` (stereo not shown) [C078, 1-(3-(2-amino-6-(4-phenoxyphenyl)quinazolin-8-yl)pyrrolidin-1-yl)prop-2-en-1-one], the negative logarithm of the IC50 (pIC50) was over 7.00. As for `C=CC(=O)Nc1cccc(-c2cc(-c3ccc(Oc4cccc(F)c4)nc3)cc3cncnc23)c1` [C086, N-(3-(6-(6-(3-fluorophenoxy)pyridin-3-yl)quinazolin-8-yl)phenyl)acrylamide], the pIC50 was over 7.00.

The record behind these values is patent publication US10544106B2, “Certain chemical entities, compositions, and methods” (NeuPharma, Inc., priority 2016, dated 2020).
